Results as given in article PMC3692431, “Anticonvulsant Activity of B2, an Adenosine Analog, on Chemical Convulsant-Induced Seizures” (PLoS ONE, 2013).

Assays:
[1] = system: strychnine-induced seizures; test: Strychnine-induced seizures in mice; type: in vivo; settings: 80 mg/kg, positive control; strychnine 1.5 mg/kg i.p.
Description: (§1) KA was dissolved in saline and the pH was adjusted to neutrality. The final concentration of KA was 0.7 µg/µl, and the convulsant dose was 1 µl (i.c.v.). […] The selective adenosine receptor antagonist DPCPX or SCH58261 was administered (i.p.) 5 min before administration of B2 or vehicle.
(§2) Mice were injected with B2 (1.25, 5, 20 mg/kg), carbamazepine (80 mg/kg) or vehicle 20 min before administration of strychnine (1.5 mg/kg) or 4-AP (13 mg/kg). […] The time of latency to seizure onset and mortality rate were recorded.

4-AP-induced seizures = 4-AP-induced seizures in mice; type: in vivo; settings: 80 mg/kg, positive control, 4-AP 13 mg/kg
Description: as §1, §2

PTZ-induced seizures [2] = test: PTZ-induced seizures with adenosine receptor antagonist pretreatment; type: in vivo, mice; settings: PTZ 85 mg/kg
Description: as §1
Twenty min later, mice were admdinistered with PTZ (85 mg/kg).

KA-induced seizures = KA-induced seizures in mice; type: in vivo; settings: 10 mg/kg, positive control, KA 0.7 µg i.c.v.
Description: as §1
The left lateral ventricle (0.6 mm posterior, 1.9 mm lateral, and 2.1 mm ventral to bregma) was cannulated as described. After a 7-day recovery period, mice were injected with either B2 (1.25, 5, 20 mg/kg) or vehicle. Twenty minutes later, an intracerebroventricular injection of KA (0.7 µg/µl, 1 µl) was administered without anesthesia. The animals were then observed for a minimum of 60 min. Seizure severity was determined according to the scoring system described by Racine. At the end of the experiment, cannulae placement was verified.

PTZ-induced seizures [3] = test: PTZ-induced seizures in mice; type: in vivo; settings: 10 mg/kg i.p.; PTZ 85 mg/kg s.c.; P<0.001
Description: The latency of seizure onset, number of seizures, and mortality rate was recorded for the picrotoxin-injected mice. For the PTZ-injected mice, we recorded the latency of seizure onset, number of seizures, and presence of clonic seizures.

## NC(=O)N1c2ccccc2C=Cc2ccccc21 [Carbamazepine, carbamazepine, reference compound]
[1]
  protection against strychnine-induced seizures: complete protection
4-AP-induced seizures; P<0.001
  effect on latency to seizure onset: significantly prolonged
4-AP-induced seizures; P<0.05
  effect on mortality rate: reduced the mortality rate

## CCCn1c(=O)c2[nH]c(C3CCCC3)nc2n(CCC)c1=O [DPCPX, 8-Cyclopentyl-1,3-dipropylxanthine]
PTZ-induced seizures [2]; DPCPX 0.3125–1.25 mg/kg i.p. alone
  effect on onset time of seizure, antagonist alone: did not affect
PTZ-induced seizures [2]; DPCPX pretreatment 5 min before B2 5 mg/kg, P<0.05
  effect on the delaying effect of B2 on onset times of seizure: significantly blocked

## CN1C(=O)CN=C(c2ccccc2)c2cc(Cl)ccc21 [Diazepam, diazepam, reference compound]
KA-induced seizures
  protection against KA-induced seizures: significant protection
PTZ-induced seizures [3]
  protection against PTZ-induced seizures: completely protected

## Nc1nc2c(cnn2CCc2ccccc2)c2nc(-c3ccco3)nn12 [SCH58261, 5-amino-7-(β-phenylethyl)-2-(2-furyl)-pyrazolo-[4,3-e]-1,2,4-triazolo[1,5-c]-pyrimidine]
PTZ-induced seizures [2]; SCH58261 0.08–1.25 mg/kg i.p. alone
  effect on onset time of seizure, antagonist alone: did not affect
PTZ-induced seizures [2]; SCH58261 pretreatment 5 min before B2 5 mg/kg
  effect on the delaying effect of B2 on seizure onset time: did not affect the delaying effect
